Source: patent US6350778B1, “Cinnamoylaminoalkyl-substituted benzenesulfonamide derivatives, processes for their preparation, their use, and pharmaceutical preparations comprising them” (Aventis Pharma Deutschland GmbH, priority 1999, dated 2002)
Where “and” joins values, the source holds several entries; their conditions need not be identical. Equal entries are not always repeated.

Assays:
[1] = system: chloroform-induced ventricular fibrillation in the mouse; experiment: Chloroform-induced ventricular fibrillation in the mouse (action in the case of vagal dysfunction); type: in vivo; conditions: for Fibrillation ratio (in %): 3 mg/kg i.p., chloroform anesthesia 30 min later, untreated control 100%
From the text: Chloroform-induced ventricular fibrillation in the mouse (action in the case of vagal dysfunction) A hypofunction of the vagal nervous system leads to a hyperfunction of the sympathetic nervous system. Damages to health which result from an imbalance of the autonomic nervous system if the dysfunction relates to the heart, include weakening of the myocardial contractile force and fatal cardiac arrhythmias such as ventricular fibrillation. The action of the test substances was investigated in the model of chloroform-induced ventricular fibrillation in the mouse (see J. W. Lawson, “Antiarrhythmic activity of some isoquinoline derivatives determined by a rapid screening procedure in the mouse,” J. Pharmacol. Exp. Ther. 160 (1968) 22). […] As soon as respiratory arrest had occurred under deep anesthesia (toxic anesthesia stage), the thorax of the animal was opened with a pair of scissors and the heartbeat was visually inspected. It can be detected at a glance here whether the heart is beating, fibrillating, or has stopped. The respiratory arrest induced by chloroform leads, via absolute anoxia (oxygen deficiency) in combination with a direct stimulating action of chloroform on the sympathetic nervous system, to a strong stimulation of the sympathetic nervous system which in turn leads, in combination with the energy deficiency produced in the heart by oxygen deficiency, to the fatal arrhythmia, ventricular fibrillation. […] The percentage proportion of the mice having ventricular fibrillation in the individual test groups (with n animals) is indicated as the fibrillation ratio. The following fibrillation ratios were determined. […] The experiment is carried out here as described above. […] After a further 15 min, the animals were anesthetized with chloroform and the fibrillation ratio was determined.

[2] = system: papillary muscle of the guinea pig; experiment: Action potential duration (APD90) in the papillary muscle of the guinea pig, shortened by rilmakalim (HOE 234); type: cell-based; conditions: starting values 185-193 ms; for APD90 + HOE 234, 30 min, then + test substance, 60 min: test substance 2 μmol/l added after 30 min rilmakalim (HOE 234) 1 μg/ml, recorded after a further 60 min
From the text: Action potential duration in the papillary muscle of the guinea pig
ATP deficiency states, such as are observed during ischemia in the cardiac muscle cell, lead to a shortening of the action potential duration. They are regarded as one of the causes of so-called reentry arrhythmias, which can cause sudden cardiac death. The opening of ATP-sensitive potassium channels by the lowering of the ATP level is regarded as causing this (ATP=adenosine triphosphate). For the measurement of the action potential in the papillary muscle of the guinea pig a standard microelectrode technique was employed.
Guinea pigs of both sexes were killed by a blow to the head, the hearts were removed, and the papillary muscles were separated out and suspended in an organ bath. The organ bath was irrigated with Ringer's solution (136 mmol/l of NaCl, 3.3 mmol/l of KCl, 2.5 mmol/l of CaCl2, 1.2 mmol/l of KH2PO4, 1.1 mmol/l of MgSO4, 5.0 mmol/l of glucose, and 10.0 mmol/l of N-(2-hydroxyethyl)piperazine-N′-(2-ethanesulfonic acid) (HEPES), pH adjusted to 7.4 with NaOH) and aerated with 100% oxygen at a temperature of 37° C. The muscle was stimulated by means of an electrode using square-wave impulses of 1 V and 1 ms duration and a frequency of 1 Hz. The action potential was derived and recorded by means of a glass microelectrode inserted intracellularly, which was filled with 3 mol/l of KCl solution. The substance to be tested was added to the Ringer's solution in a concentration of 2 μmol/l. The action potential was amplified using an amplifier from Hugo Sachs (March-Hugstetten, Germany) and stored and analyzed by means of a computer. The duration of the action potential was determined at a degree of repolarization of 90% (APD90). The action potential shortening was produced by addition of a solution of the potassium channel opener Rilmakalim (HOE 234) (W. Linz et al., Arzneimittelforschung/Drug Research, 42 (II) (1992) 1180-1185) (rilmakalim concentration 1 μg/ml). 30 minutes after the administration of rilmakalim, the action potential duration was recorded. The test substance was then added and the action potential duration, which was prolonged again, was recorded after a further 60 minutes. The test substances were added to the bath solution as stock solutions in propanediol.
The following APD90 values (in milliseconds) were recorded.

[3] = atropine 1 mg/kg i.v., chloroform 15 min after administration, n = 10
[4] = Example 8 10 mg/kg i.p., chloroform 30 min after administration, n = 20

In the case of `CN1[C@@H]2CC[C@H]1C[C@@H](OC(=O)C(CO)c1ccccc1)C2` (some centres unmarked) [Atropine, atropine, reference compound], the Fibrillation ratio [1, 3] is reported as 100%, the “Number of animals with fibrillation” value [1, 3] is reported as 10 and the “Number of animals with regular heart action” value [1, 3] is reported as 0.

With `CNC(=S)NS(=O)(=O)c1cc(CCNC(=O)/C=C/c2ccc(OC)cc2OC)ccc1OC` [Example 1, 1-(5-(2-(2,4-Dimethoxycinnamoylamino)ethyl)-2-methoxyphenysulfonyl)-3-methylthiourea] the “Fibrillation ratio (in %)” value ([1]; n = 10) was 60% and the “APD90 + HOE 234, 30 min, then + test substance, 60 min” value (shortened to “APD90 + HOE 234, 30 min … 60 min”) [2] was 177 milliseconds.

In the case of `CNC(=O)NS(=O)(=O)c1cc(CCNC(=O)/C=C/c2ccc(OC)cc2OC)ccc1OC` [Example 2, 1-(5-(2-(2 ,4-Dimethoxycinnamoylamino)ethyl)-2-methoxyphenylsulfonyl)-3-methylurea], the melting point is reported as 210 °C.

Molecule `CCNC(=S)NS(=O)(=O)c1cc(CCNC(=O)/C=C/c2ccc(OC)cc2OC)ccc1OC` [Example 3, 1-(5-(2-(2,4-Dimethoxycinnamoylamino)ethyl)-2-methoxyphenylsulfonyl)-3-ethylthiourea] has a melting point of 90 °C.

In the case of `CCNC(=O)NS(=O)(=O)c1cc(CCNC(=O)/C=C/c2ccc(OC)cc2OC)ccc1OC` [Example 4, 1-(5-(2-(2,4-Dimethoxycinnamoylamino)ethyl)-2-methoxyphenylsulfonyl)-3-ethylurea], the melting point is reported as 96 °C.

With `CNC(=S)NS(=O)(=O)c1cc(CCNC(=O)/C=C/c2ccc(C)cc2C)ccc1OC` [Example 5, 1-(5-(2-(2,4-Dimethylcinnamoylamino)ethyl)-2-methoxyphenylsulfonyl)-3-methylthiourea] the “Fibrillation ratio (in %)” value ([1]; n = 10) was 70%.

Molecule `CNC(=O)NS(=O)(=O)c1cc(CCNC(=O)/C=C/c2ccc(C)cc2C)ccc1OC` [Example 6, 1-(5-(2-(2,4-Dimethylcinnamoylamino)ethyl)-2-methoxyphenylsulfonyl)-3-methylurea] has a melting point of 227 to 229 °C.

With `CNC(=S)NS(=O)(=O)c1cc(CCNC(=O)/C=C/c2ccc(OC)cc2OC)ccc1OCCOC` [Example 7, 1-(5-(2-(2,4-Dimethoxycinnamoylamino)ethyl)-2-(2-methoxyethoxy)phenylsulfonyl)-3-methylthiourea] the “APD90 + HOE 234, 30 min … 60 min” value [2] was 175 milliseconds.

In the case of `CNC(=O)NS(=O)(=O)c1cc(CCNC(=O)/C=C/c2ccc(OC)cc2OC)ccc1OCCOC` [Example 8, 1-(5-(2-(2,4-Dimethoxycinnamoylamino)ethyl)-2-(2-methoxyethoxy)phenysulfonyl)-3-methylurea], the “Fibrillation ratio (in %)” value ([1]; n = 10) is reported as 60%, the “Number of animals with fibrillation” value [1, 4] is reported as 9 and the “Number of animals with regular heart action” value [1, 4] is reported as 11. The Fibrillation ratio ([1]; Example 8 10 mg/kg i.p., chloroform 30 min after administration, n = 20, p < 0.0001 vs atropine, p = 0.024 vs combination) was 45% ^1), 2) and the “APD90 + HOE 234, 30 min … 60 min” value [2] was 92 milliseconds.

With `CCNC(=S)NS(=O)(=O)c1cc(CCNC(=O)/C=C/c2ccc(OC)cc2OC)ccc1OCCOC` [Example 9, 1-(5-(2-(2,4-Dimethoxycinnamoylamino)ethyl)-2-(2-methoxyethoxy)phenylsulfonyl)-3-ethylthiourea] the “Fibrillation ratio (in %)” value ([1]; n = 10) was 63%.

In the case of `CNC(=S)NS(=O)(=O)c1cc(CCNC(=O)/C=C/c2ccccc2)ccc1OC` [Example 12, 1-(5-(2-(Cinnamoylamino)ethyl)-2-methoxyphenylsulfonyl)-3-methylthiourea], the “Fibrillation ratio (in %)” value ([1]; n = 10) is reported as 63%.

For `CNC(=S)NS(=O)(=O)c1cc(CCNC(=O)/C=C/c2ccccc2)ccc1OCCOC` [Example 17, 1-(5-(2-(Cinnamoylamino)ethyl)-2-(2-methoxyethoxy)phenylsulfonyl)-3-methylthiourea], the melting point was 150 °C.

With `CNC(=O)NS(=O)(=O)c1cc(CCNC(=O)/C=C/c2ccccc2)ccc1OCCOC` [Example 19, 1-(5-(2-(Cinnamoylamino)ethyl)-2-(2-methoxyethoxy)phenylsulfonyl)-3-methylurea] the melting point was 65 °C.

`CNC(=S)NS(=O)(=O)c1cc(CCNC(=O)/C=C/c2cc(Cl)ccc2OC)ccc1OC` [Example 21, 1-(5-(2-(5-Chloro-2-methoxycinnamoylamino)ethyl)-2-methoxyphenylsulfonyl)-3-methylthiourea] showed a melting point of 188 to 190 °C.

For `C=CCOc1ccc(CCNC(=O)/C=C/c2ccc(OC)cc2OC)cc1S(=O)(=O)NC(=S)NC` [Example 23, 1-(2-Allyloxy-5-(2-(2,4-dimethoxycinnamoylamino)ethyl)phenylsulfonyl)-3-methylthiourea], the melting point was 171 to 175 °C.

For `CNC(=S)NS(=O)(=O)c1cc(CCNC(=O)/C=C/c2ccc(Cl)cc2Cl)ccc1OCCOC` [Example 24], the melting point was 76 to 78 °C.

Work on `CNC(=S)NS(=O)(=O)c1cc(CCNC(=O)/C=C/c2cc(C(C)(C)C)ccc2OC)ccc1OCCOC` [Example 25, 1-(5-(2-(5-tert-Butyl-2-methoxycinnamoylamino)ethyl)-2-(2-methoxyethoxy)phenyl-sulfonyl)-3-methylthiourea] yielded a melting point of 73 °C.

`CNC(=S)NS(=O)(=O)c1cc(CCNC(=O)/C=C/c2ccc(C)cc2C)ccc1OCCOC` [Example 26, 1-(5-(2-(2,4-Dimethylcinnamoylamino)ethyl)-2-(2-methoxyethoxy)phenylsufonyl)-3-methylthiourea] gave a melting point of 116 °C.

In the case of `CC1(C)Oc2ccc(S(=O)(=O)c3ccccc3)cc2[C@@H](N2CCCC2=O)[C@@H]1O` [HOE 234, Rilmakalim, reference compound], the “APD90 + HOE 234, 30 min” value ([2]; potassium channel opener rilmakalim (HOE 234) 1 μg/ml alone, 30 min, before test substance, 37° C., 1 Hz) is reported as 24 milliseconds and 34 milliseconds.
